What was measured:
HepG2 [1] = test: Cytotoxicity against human HepG2 cells assessed as surviving fraction ratio at 12.5 uM after 48 hrs by SRB assay relative to control; type: functional
HepG2 [2] = test: Cytotoxicity against human HepG2 cells assessed as surviving fraction ratio after 48 hrs by SRB assay relative to control; type: functional, cell-based
HepG2 [3] = test: Cytotoxicity against human HepG2 cells assessed as surviving fraction ratio at 25 uM after 48 hrs by SRB assay relative to control; type: functional
HepG2 [4] = test: Cytotoxicity against human HepG2 cells assessed as surviving fraction ratio at 5 uM after 48 hrs by SRB assay relative to control; type: functional
HepG2 [5] = test: Cytotoxicity against human HepG2 cells assessed as surviving fraction ratio at 50 uM after 48 hrs by SRB assay relative to control; type: functional
HepG2 [6] = test: Cytotoxicity against human HepG2 cells assessed as surviving fraction ratio at 12.5 uM incubated for 2 hrs prior to 8Gy gamma-irradiation measured after 48 hrs by ELISA reader relative to control; type: functional
HepG2 [7] = test: Cytotoxicity against human HepG2 cells assessed as surviving fraction ratio at 5 uM incubated for 2 hrs prior to 8Gy gamma-irradiation measured after 48 hrs by ELISA reader relative to control; type: functional
HepG2 [8] = test: Cytotoxicity against human HepG2 cells assessed as surviving fraction ratio incubated for 2 hrs prior to 8Gy gamma-irradiation measured after 48 hrs by ELISA reader relative to control; type: functional, cell-based; conditions: HepG2, light or radiation study
HepG2 [9] = test: Cytotoxicity against human HepG2 cells assessed as surviving fraction ratio at 25 uM incubated for 2 hrs prior to 8Gy gamma-irradiation measured after 48 hrs by ELISA reader relative to control; type: functional
HepG2 [10] = test: Cytotoxicity against human HepG2 cells assessed as surviving fraction ratio at 50 uM incubated for 2 hrs prior to 8Gy gamma-irradiation measured after 48 hrs by ELISA reader relative to control; type: functional
[11] = Homo sapiens, HepG2, 48 h, read-out: IC50

Row | Structure (SMILES) | Ratio (HepG2 [1]) | IC50 (HepG2 [2]; hepg2) | Ratio (HepG2 [3]) | Ratio (HepG2 [4]) | Ratio (HepG2 [5]) | IC50 (HepG2 [2]; [11]) | Ratio (HepG2 [6]) | Ratio (HepG2 [7]) | IC50 (HepG2 [8]) | Ratio (HepG2 [9]) | Ratio (HepG2 [10])
1 | Cc1ccc(S(=O)(=O)Nc2ccc(C(=O)/C=C/c3ccccc3)cc2)cc1 | 2.032 | Not Active | 1.017 | 2.385 | 0.529 | – | – | – | – | – | –
2 | CC(=O)c1ccc(NS(=O)(=O)c2ccc(C)cc2)cc1 | 0.726 | – | 0.547 | 1.048 | 0.367 | 35.8 µM | – | – | – | – | –
3 | CC(=O)c1ccc(NS(=O)(=O)c2ccccc2)cc1 | 0.719 | – | 0.464 | 0.891 | 0.417 | 35.3 µM | – | – | – | – | –
4 | Cc1ccc(S(=O)(=O)Nc2ccc(C(=O)/C=C/c3ccc([N+](=O)[O-])cc3)cc2)cc1 | 0.348 | – | 0.392 | 0.476 | 0.495 | 26 µM | 0.451 | 0.558 | 20.5 µM | 0.368 | 0.249
5 | C/C(=N\NC(=O)CC#N)c1ccc(NS(=O)(=O)c2ccccc2)cc1 | 0.778 | – | 0.361 | 0.881 | 0.242 | 28 µM | – | – | – | – | –
6 | C/C(=N\NC(=O)CC#N)c1ccc(NS(=O)(=O)c2ccc(C)cc2)cc1 | 0.53 | – | 0.349 | 0.837 | 0.293 | 26 µM | – | – | – | – | –
7 | C/C(=N/n1c(N)cc(N)c(C#N)c1=O)c1ccc(NS(=O)(=O)c2ccccc2)cc1 | 0.556 | – | 0.312 | 0.748 | 0.321 | 25.5 µM | 0.194 | 0.395 | 11.5 µM | 0.299 | 0.34
8 | C/C(=N\n1c(N)cc(N)c(C#N)c1=O)c1ccc(NS(=O)(=O)c2ccc(C)cc2)cc1 | 0.761 | – | 0.577 | 0.937 | 0.385 | 37 µM | – | – | – | – | –
9 | C/C(=N\NC(=O)c1sc(N)c(C#N)c1N)c1ccc(NS(=O)(=O)c2ccccc2)cc1 | 0.456 | – | 0.239 | 0.869 | 0.274 | 23.3 µM | 0.386 | 0.526 | 18.3 µM | 0.253 | 0.322
10 | C/C(=N\NC(=O)c1sc(N)c(C#N)c1N)c1ccc(NS(=O)(=O)c2ccc(C)cc2)cc1 | 0.383 | – | 0.39 | 0.571 | 0.323 | 21.8 µM | 0.227 | 0.291 | 5.8 µM | 0.105 | 0.174
11 | C/C(=N/NC(=O)/C(C#N)=C/N(C)C)c1ccc(NS(=O)(=O)c2ccc(C)cc2)cc1 | 0.877 | – | 0.546 | 1.141 | 0.378 | 37.8 µM | – | – | – | – | –
12 | C/C(=N/NC(=O)C(C#N)C(=S)S)c1ccc(NS(=O)(=O)c2ccc(C)cc2)cc1 (stereo not given) | 0.229 | – | 0.291 | 0.344 | 0.414 | 11 µM | 0.206 | 0.245 | 5 µM | 0.189 | 0.158
13 | C/C(=N/NC(=O)c1sc2c(c1N)CCCC2)c1ccc(NS(=O)(=O)c2ccc(C)cc2)cc1 | 0.528 | – | 0.331 | 0.868 | 0.277 | 25.5 µM | 0.524 | 0.521 | 20 µM | 0.329 | 0.229
14 | COc1ccc(-c2c(C#N)c(N)n(/N=C(/C)c3ccc(NS(=O)(=O)c4ccc(C)cc4)cc3)c(=O)c2C#N)cc1 | 0.696 | – | 0.363 | 0.984 | 0.375 | 31.8 µM | – | – | – | – | –
15 | C/C(=N/n1c(N)c(C#N)c(-c2ccc([N+](=O)[O-])cc2)c(C#N)c1=O)c1ccc(NS(=O)(=O)c2ccc(C)cc2)cc1 | 0.635 | – | 0.331 | 0.951 | 0.408 | 31.5 µM | 0.603 | 0.439 | 23.5 µM | 0.345 | 0.352
16 | Cc1ccc(/C=C/C(=O)c2ccc(NS(=O)(=O)c3ccc(C)cc3)cc2)cc1 | 1.616 | – | 0.781 | 1.931 | 0.489 | 49.8 µM | – | – | – | – | –
17 | Cc1ccc(S(=O)(=O)Nc2ccc(C(=O)/C=C/c3ccc(F)cc3)cc2)cc1 | 0.497 | – | 0.383 | 1.461 | 0.551 | 39.3 µM | – | – | – | – | –
18 | Cc1ccc(S(=O)(=O)Nc2ccc(C(=O)/C=C/c3ccc(Cl)cc3)cc2)cc1 | 1.478 | – | 0.591 | 2.16 | 0.402 | 43.3 µM | – | – | – | – | –
19 | Cc1ccc(S(=O)(=O)Nc2ccc(C(=O)/C=C/c3ccc(Br)cc3)cc2)cc1 | 0.505 | – | 0.43 | 0.584 | 0.445 | 30.3 µM | 0.471 | 0.591 | 26.8 µM | 0.394 | 0.408
20 | Cc1ccc(S(=O)(=O)Nc2ccc(C(/C=C/c3ccc([N+](=O)[O-])cc3)=N\O)cc2)cc1 | 1.769 | Not Active | 1.351 | 1.723 | 0.632 | – | – | – | – | – | –
21 | Cc1ccc(S(=O)(=O)Nc2ccc(-c3cc(-c4ccc([N+](=O)[O-])cc4)[nH]n3)cc2)cc1 | 1.197 | – | 0.522 | 1.772 | 0.508 | 44.8 µM | – | – | – | – | –
22 | Cc1ccc(S(=O)(=O)Nc2ccc(-c3cc(-c4ccc([N+](=O)[O-])cc4)n(-c4ccccc4)n3)cc2)cc1 | 1.841 | Not Active | 0.923 | 2.085 | 0.536 | – | – | – | – | – | –
23 | Cc1ccc(S(=O)(=O)Nc2ccc(-c3cc(-c4ccc([N+](=O)[O-])cc4)n(C(N)=S)n3)cc2)cc1 | 1.759 | Not Active | 1.078 | 1.907 | 0.5 | – | – | – | – | – | –
24 | Cc1ccc(S(=O)(=O)Nc2ccc(-c3cc(-c4ccc([N+](=O)[O-])cc4)n(C(=S)NN)n3)cc2)cc1 | 1.189 | – | 0.507 | 1.766 | 0.53 | 45.3 µM | – | – | – | – | –
25 | Cc1ccc(S(=O)(=O)Nc2ccc(-c3cc(-c4ccc([N+](=O)[O-])cc4)[nH]c(=O)n3)cc2)cc1 | 0.95 | – | 0.732 | 1.619 | 0.481 | 46.3 µM | – | – | – | – | –
26 | Cc1ccc(S(=O)(=O)Nc2ccc(-c3cc(-c4ccc([N+](=O)[O-])cc4)[nH]c(=S)n3)cc2)cc1 | 0.805 | – | 0.486 | 1.066 | 0.398 | 36.5 µM | – | – | – | – | –
